Patent US20240294572A1, “Antimicrobial Peptides” (priority 2021, published 2024)
Non-standard residues stand in square brackets, D forms with d. Residues, ends and D or L forms follow the SMILES beside them. *: point of attachment. Decanoyl = CCCCCCCCCC(=O)*

Columns and labels:
S. aureus USA300 LAC = assay: Bacterial resistance development, multiple passage experiment; format: cell-based; details: 14 passages/days at sub-MIC
Protocol: This experiment was performed similar to the MIC determination with a few modifications as described (Mishra, et al. (2019) Proc. Natl. Acad. Sci., 116:13517-13522). In short, an exponential phase S. aureus USA300 culture (i.e., optical density at 600 nm≈0.5) was diluted and partitioned into a 96-well polystyrene microplate with ˜10^5 bacteria per well (90 μL aliquots). After treatment with 10 μL of peptide or nafcillin solutions at various concentrations, microplates were incubated at 37° C. overnight and read on a ChroMate® 4300 Microplate Reader at 630 nm (Awareness Technology, FL). Of the wells with sub-MIC levels of the peptides that retained growth, approximately half of the control wells were again reinoculated in fresh TSB with sub-MIC concertation of peptides or antibiotics to attain exponential phase for MIC determination. Up to 15 serial passages of the bacteria cultures were conducted. The increase in the fold change (MIC on given passage/MIC recorded in first day of passage) was used to determine the degree of drug resistance.

In vivo toxicity = assay: In vivo toxicity; design: species or system C57BL/6 mice
Protocol: Toxicity was assessed in female C57BL/6 mice by the intraperitoneal administration of increasing doses of the antimicrobial peptide C10-KR8d (10, 20, and 40 mg/kg) and a control group without peptide treatment. The animals were then observed for 5 days (twice a day). The number of moribund/dead animals for each of the doses was noted and plotted.
Mice were caged, fed, and environmentally adapted as described (Lakshmaia, et al. (2020) Proc. Natl. Acad. Sci., 117:19446-19454). All animal manipulations were performed in a class II laminar flow biological safety cabinet.

[1] = test system: MCP-1, IL-17A, IL-10, TNF-α; assay: Cytokine quantification in tissues surrounding catheters; format: in vivo, mice; details: day 3 after peptide treatment
Protocol: The catheter-associated tissue homogenates/plasma samples stored at −80° C. were thawed to room temperature for the cytokines quantification using the BioLegend® individual mouse cytokine kit. The protocol for sample preparation and analysis was per the manufacturer manual. The samples were in duplicates with appropriate standards. The data are represented as mean±SD. Plots were generated using GraphPad prism 7, where * indicates p<0.05, **p<0.01, ***p<0.001, and NS means no significance (nonparametric, unpaired, Mann-Whitney test).

Compound: CCCCCCCCCC(=O)N[C@H](CCCCN)C(=O)N[C@H](CCCNC(=N)N)C(=O)N[C@@H](C(=O)N[C@H](Cc1c[nH]c2ccccc12)C(=O)N[C@H](CCC(N)=O)C(=O)N[C@H](CCCNC(=N)N)C(=O)N[C@@H](C(=O)N[C@H](CCCCN)C(N)=O)[C@H](C)CC)[C@H](C)CC [Peptide C10-KR8d] (Decanoyl-[dK][dR][dI][dW][dQ][dR][dI][dK]-NH2)
- MIC increase in multiple passage experiment (S. aureus USA300 LAC): no changes
- MTD at 5 days (In vivo toxicity; female, C57BL/6, mouse, in vivo, ip, C57BL/6 mice, read-out: maximal tolerated dose (MTD)): ≥ 20 mg/kg
- survival of mice (In vivo toxicity; i.p. 40 mg/kg): all mice died in a day
- survival of mice (In vivo toxicity; i.p. 10 or 20 mg/kg, 5 days observation): all mice survived
- level of IL-10 in surrounding tissues of catheters [1]: decrease
- level of IL-17A in surrounding tissues of catheters [1]: up-regulation
- level of MCP-1/CCL2 in surrounding tissues of catheters [1]: up-regulation
- level of TNFα in surrounding tissues of catheters [1]: decrease
